Data on 23 compounds can be found in US20120046317A1, “NOVEL HETEROCYCLIC COMPOUNDS” (priority 2009, published 2012).

Data set [1] in a line: Single dose oral pharmacokinetics of Reference compound-T and compound no. 100 in dog. To be noted: male dog, 15 mg/kg, administered compound in plasma, mean.
Experimental: (§1) Non-compartmental pharmacokinetic analysis was performed using WinNonlin 5.2.
A short description of data set [2]: Single dose oral pharmacokinetics of Reference compound-T and compound no. 100 in Wistar rat. To be noted: male Wistar rat, 10 mg/kg.
Experimental: (§2) Summary of Oral Pharmacokinetics of Reference Compound-T and Compound No. 100 in Wistar Rat:
(§3) Single dose pharmacokinetics of Reference compound-T (3-((2-(methylsulfonyl)hydrazino)carbonyl)-1-(2-oxo-2-thienylethyl)pyridinium chloride) and compound no. 100 was studied in male Wistar rat (280-300 gm, n=5) after oral administration at a dose of 10 mg/kg. Blood samples were obtained serially from jugular vein cannulated animals at selected time points and concentration of Reference compound-T and compound no. 100 in plasma was determined by LC-MS/MS. Non-compartmental pharmacokinetic analysis was performed using WinNonlin 5.2. […] 100.
The test system of data set [3] is AGE-LDL formation (Low density lipoprotein incubated with CuCl2). The data set is described as follows: In vitro inhibition of AGE-LDL formation: LDL incubated with CuCl2, MDA-lysine adduct fluorescence. The format is biochemical. To be noted: LDL with CuCl2 at 37° C. On the procedure:
In vitro Inhibition of AGE-LDL Formation:
Low density lipoprotein (LDL) was incubated with CuCl2 at 37° C. in phosphate buffered saline in the presence and absence of the following compounds. […] Results were expressed as % MDA-lysine adducts accumulation, considering the extent of the same formed upon incubation with CuCl2 alone as 100%.

The test system of data set [4] is AGE-BSA Formation (Bovine Serum Albumin incubated with ribose). Nature of the data set: In vitro prevention of advanced glycation endproducts (AGEs) accumulation: BSA incubated with ribose, fluorescence. To be noted: one week.
Experimental: A reduction in fluorescence intensity in the presence of the test compound is an indication of its ability to prevent accumulation of advanced glycation endproducts.
Bovine Serum Albumin was incubated with ribose alone as well as with ribose and different concentrations of the following compounds under aseptic conditions for one week. At the end of the incubation period fluorescence intensity of the samples was measured at excitation and emission wavelengths of 355 nm and 460 nm respectively.
The conditions of data set [5]: rat, in vivo, po, 10 mg/kg.
Experimental: as §2, §3
For data set [6] the following is noted: male, dog, in vivo, po, 15 mg/kg.
Experimental: as §1
Data set [7] is described as follows: in vivo. To be noted: male, Wistar, rat, po, 10 mg/kg.
Experimental: as §2, §3
Data set [8] in a line: in vivo. To be noted: male, dog, po, 15 mg/kg.
Experimental: as §1
In data set [9] the test system is Ob-ZSF1 animal model. To be noted: cited from earlier work.
For data set [10], the system named is patients. To be noted: phase 2 clinical studies; particularly in more severely affected patients; cited from earlier work.
For data set [11], the system named is diabetic spontaneously hypertensive rats. To be noted: cited from earlier work.
Setting [12] is: administered compound in plasma, mean.

Where two headings read alike, the source gives them in different places.

As a reminder, the Cmax is the peak of the concentration-time curve. With `CS(=O)(=O)NNC(=O)c1ccc[n+](CC(=O)c2cccs2)c1.[Cl-]` [Reference compound-T, 3-((2-(methylsulfonyl)hydrazino)carbonyl)-1-(2-oxo-2-thienylethyl)pyridinium chloride], in [1], the “AUC(0-24 hr)” value came out at 2477.0 ng·h/mL and the Cmax turned out to be 258.4 ng/mL. Also, the Absorption entry in [2] is reported as “absorbed rapidly”. In [2] (setting [12]), the “AUC(0-8 hr)” value amounted to 203.6 ng·h/mL and the Cmax was found to be 100.5 ng/mL.

Take `CS(=O)(=O)NNC(=O)C1=CN(CC(=O)c2ccc(Br)cc2)C=CC1` [compound 143, 1-[2-(4-bromophenyl)-2-oxoethyl]-N′-(methylsulfonyl)-1,4-dihydropyridine-3-carbohydrazide]: the “% Inhibition of AGE-LDL-formation” value in data set [3] (Conc. 100 uM) was “++++ (++++ indicate >30%)”. In addition, the “% Inhibition of AGE-BSA Formation” value in [4] (Conc. 100 uM) was “+ (+ indicate 0-10%)”.

Consider `Cc1ccc(S(=O)(=O)NNC(=O)C2=CN(CC(=O)c3cccs3)C=CC2)cc1` [compound 147, N′-[(4-methylphenyl)sulfonyl]-1-[2-oxo-2-(thiophen-2-yl)ethyl]-1,4-dihydropyridine-3-carbohydrazide], for which the “% Inhibition of AGE-LDL-formation” value in data set [3] (Conc. 100 uM) is “++++ (++++ indicate >30%)”. Moreover, the “% Inhibition of AGE-BSA Formation” value in data set [4] (Conc. 100 uM) is reported as “+++ (+++ indicate 21-30%)”.

With `COc1ccc(C(=O)CN2CCCC(C(=O)NNS(C)(=O)=O)C2)cc1` (stereo not shown) [compound 163, 1-[2-(4-methoxyphenyl)-2-oxoethyl]-N′-(methylsulfonyl)piperidine-3-carbohydrazide], the “% Inhibition of AGE-LDL-formation” value in [3] (Conc. 100 uM) is reported as “+ (+ indicate 0-10%)”. Moreover, in data set [4] (Conc. 250 uM), the “% Inhibition of AGE-BSA Formation” value is “+ (+ indicate 0-10%)”.

For the compound `Cc1ccc(C(=O)CN2CC=CC(C(=O)NNS(C)(=O)=O)C2)s1` (stereo not shown) [compound 182, N′-(methylsulfonyl)-1-[2-(5-methylthiophen-2-yl)-2-oxoethyl]-1,2,3,6-tetrahydropyridine-3-carbohydrazide], the “% Inhibition of AGE-LDL-formation” value in data set [3] (Conc. 250 uM) is “+++ (+++ indicate 21-30%)”. Moreover, the “% Inhibition of AGE-BSA Formation” value in data set [4] (Conc. 1 mM) was “+ (+ indicate 0-10%)”.

Broadly, the AUC(0-t) is exposure summed from dosing to a finite time, without extrapolation to infinity. Low readings indicate low exposure, high ones high exposure. With `CS(=O)(=O)NNC(=O)C1=CN(CC(=O)c2cccs2)C=CC1` [Compound no. 100, N′-(methylsulfonyl)-1-[2-oxo-2-(thiophen-2-yl)ethyl]-1,4-dihydropyridine-3-carbohydrazide], the “% Inhibition of AGE-LDL-formation” value in [3] (Conc. 250 uM) is on record as “++++ (++++ indicate >30%)”. For the same compound, in [5], the Absorption result is given as “absorbed rapidly”. For the same compound, the “Maximum plasma concentration of reference compound converted after administration of compound no. 100 in comparison to the administration of ref. compound” value in [6] was around 3.6 times. Besides, the AUC(0-t) worked out at 1410 ng·h/mL in [7] and 1780 ng·h/mL in data set [8]. Moreover, the Cmax was found to be 1350 ng/mL in data set [7] and 397 ng/mL in [8]. Further, in data set [4] (Conc. 1 mM), the “% Inhibition of AGE-BSA Formation” value is on record as “++ (++ indicate 11-20%)”.

In the case of `O=C(CN1CCCC(C(=O)NNS(=O)(=O)c2ccccc2)C1)c1cccs1` (stereo not shown) [compound 160, 1-[2-oxo-2-(thiophen-2-yl)ethyl]-N′-(phenylsulfonyl)piperidine-3-carbohydrazide], the “% Inhibition of AGE-LDL-formation” value in data set [3] (Conc. 100 uM) was “+ (+ indicate 0-10%)”. Besides, the “% Inhibition of AGE-BSA Formation” value in data set [4] (Conc. 100 uM) is “+ (+ indicate 0-10%)”.

`Cc1ccc(C(=O)CN2CCCC(C(=O)NNS(C)(=O)=O)C2)s1` (stereo not shown) [compound 164, N′-(methylsulfonyl)-1-[2-(5-methylthiophen-2-yl)-2-oxoethyl]piperidine-3-carbohydrazide]: the “% Inhibition of AGE-LDL-formation” value in data set [3] (Conc. 250 uM) is “+ (+ indicate 0-10%)”. The “% Inhibition of AGE-BSA Formation” value in [4] (Conc. 1 mM) is listed as “+ (+ indicate 0-10%)”.

Take `CS(=O)(=O)NNC(=O)c1ccc[n+](CC(=O)c2cccs2)c1.[Cl-]` [TRC4186]: the “Effect on diabetic cardiomyopathy and nephropathy” value in data set [9] is “preserved cardiac function and reduced the severity of renal dysfunction”.

Turning to `Cc1sc[n+](CC(=O)c2ccccc2)c1C` [Alagebrium], the “Effect on cardiac function and systolic blood pressure” value in data set [10] was “effective in improving cardiac function and uncontrolled systolic blood pressure”.

`COc1ccc(C(=O)CN2CCC=C(C(=O)NNS(=O)(=O)c3ccc(C)cc3)C2)cc1` [compound 173, 1-[2-(4-methoxyphenyl)-2-oxoethyl]-N′-[(4-methylphenyl)sulfonyl]-1,2,5,6-tetrahydropyridine-3-carbohydrazide]: in data set [3] (Conc. 100 uM), the “% Inhibition of AGE-LDL-formation” value is recorded as “+ (+ indicate 0-10%)”. For the same compound, the “% Inhibition of AGE-BSA Formation” value in data set [4] (Conc. 100 uM) is “+ (+ indicate 0-10%)”.

For the compound `CS(=O)(=O)NNC(=O)C1=CN(CC(=O)c2cccs2)CCC1` [compound 183, N′-(methylsulfonyl)-1-[2-oxo-2-(thiophen-2-yl)ethyl]-1,4,5,6-tetrahydropyridine-3-carbohydrazide], in data set [3] (Conc. 250 uM), the “% Inhibition of AGE-LDL-formation” value was “++ (++ indicate 11-20%)”. The “% Inhibition of AGE-BSA Formation” value in data set [4] (Conc. 1 mM) is recorded as “+++ (+++ indicate 21-30%)”.

Regarding `CS(=O)(=O)NNC(=O)C1C=CCN(CC(=O)c2cccs2)C1` (stereo not shown) [compound 186, N′-(methylsulfonyl)-1-[2-oxo-2-(thiophen-2-yl)ethyl]-1,2,3,6-tetrahydropyridine-3-carbohydrazide], the “% Inhibition of AGE-LDL-formation” value in data set [3] (Conc. 250 uM) is recorded as “++++ (++++ indicate >30%)”. Moreover, the “% Inhibition of AGE-BSA Formation” value in [4] (Conc. 1 mM) is recorded as “+ (+ indicate 0-10%)”.

Regarding `COc1ccc(C(=O)CN2CC=CC(C(=O)NNS(C)(=O)=O)C2)cc1` (stereo not shown) [compound 181, 1-[2-(4-methoxyphenyl)-2-oxoethyl]-N′-(methylsulfonyl)-1,2,3,6-tetrahydropyridine-3-carbohydrazide], the “% Inhibition of AGE-LDL-formation” value in data set [3] (Conc. 100 uM) was “+ (+ indicate 0-10%)”. In data set [4] (Conc. 250 uM), the “% Inhibition of AGE-BSA Formation” value is on record as “+ (+ indicate 0-10%)”.

For `O=C(NNS(=O)(=O)c1ccccc1)C1=CCCN(CC(=O)c2cccs2)C1` [compound 169, 1-[2-oxo-2-(thiophen-2-yl)ethyl]-N′-(phenylsulfonyl)-1,2,5,6-tetrahydropyridine-3-carbohydrazide], the “% Inhibition of AGE-LDL-formation” value in data set [3] (Conc. 100 uM) was “+ (+ indicate 0-10%)”. For the same compound, in data set [4] (Conc. 100 uM), the “% Inhibition of AGE-BSA Formation” value is “+ (+ indicate 0-10%)”.

On to `CS(=O)(=O)NNC(=O)C1=CCCN(CC(=O)c2cccs2)C1` [compound 185, N′-(methylsulfonyl)-1-[2-oxo-2-(thiophen-2-yl)ethyl]-1,2,5,6-tetrahydropyridine-3-carbohydrazide], for which, in data set [3] (Conc. 250 uM), the “% Inhibition of AGE-LDL-formation” value is “+++ (+++ indicate 21-30%)”. Besides, the “% Inhibition of AGE-BSA Formation” value in data set [4] (Conc. 1 mM) was “+ (+ indicate 0-10%)”.

`Cc1ccc(C(=O)CN2CCC=C(C(=O)NNS(C)(=O)=O)C2)s1` [compound 174, N′-(methylsulfonyl)-1-[2-(5-methylthiophen-2-yl)-2-oxoethyl]-1,2,5,6-tetrahydropyridine-3-carbohydrazide]: the “% Inhibition of AGE-LDL-formation” value in [3] (Conc. 250 uM) is “++++ (++++ indicate >30%)”. The “% Inhibition of AGE-BSA Formation” value in data set [4] (Conc. 1 mM) is listed as “+ (+ indicate 0-10%)”.

Take `CS(=O)(=O)NNC(=O)C1=CN(CC(=O)c2ccc(Cl)cc2Cl)C=CC1` [compound 168, 1-[2-(2,4-dichlorophenyl)-2-oxoethyl]-N′-(methylsulfonyl)-1,4-dihydropyridine-3-carbohydrazide]: the “% Inhibition of AGE-LDL-formation” value in [3] (Conc. 100 uM) was “+ (+ indicate 0-10%)”. Moreover, the “% Inhibition of AGE-BSA Formation” value in data set [4] (Conc. 100 uM) is given as “+ (+ indicate 0-10%)”.

Turning to `CS(=O)(=O)NNC(=O)c1ccc[n+](CC(=O)c2cccs2)c1.[Br-]` [TRC4149], in [11], the “Effect on endothelial and cardiac function” value was “preserved endothelial and cardiac function”.

Regarding `O=C(NNC(=O)C1=CCCN(CC(=O)c2cccs2)C1)Nc1ccc(Cl)cc1` [compound 171, N-(4-chlorophenyl)-2-({1-[2-oxo-2-(thiophen-2-yl)ethyl]-1,2,5,6-tetrahydropyridin-3-yl}carbonyl)hydrazinecarboxamide], in [3] (Conc. 100 uM), the “% Inhibition of AGE-LDL-formation” value is listed as “+ (+ indicate 0-10%)”. For the same compound, the “% Inhibition of AGE-BSA Formation” value in data set [4] (Conc. 100 uM) is listed as “+ (+ indicate 0-10%)”.

For the compound `COc1ccc(C(=O)CN2CCCC(C(=O)NNS(=O)(=O)c3ccc(C)cc3)C2)cc1` (stereo not shown) [compound 162, 1-[2-(4-methoxyphenyl)-2-oxoethyl]-N′-[(4-methylphenyl)sulfonyl]piperidine-3-carbohydrazide], the “% Inhibition of AGE-LDL-formation” value in [3] (Conc. 100 uM) is recorded as “++++ (++++ indicate >30%)”. Further, the “% Inhibition of AGE-BSA Formation” value in data set [4] (Conc. 100 uM) is on record as “+ (+ indicate 0-10%)”.

For the compound `COc1ccc(C2=CN(CC(=O)c3cccs3)C=C(C(=O)NNS(C)(=O)=O)C2)cc1` [compound 151, 5-(4-methoxyphenyl)-N′-(methylsulfonyl)-1-[2-oxo-2-(thiophen-2-yl)ethyl]-1,4-dihydropyridine-3-carbohydrazide], in [3] (Conc. 100 uM), the “% Inhibition of AGE-LDL-formation” value was “+ (+ indicate 0-10%)”. The “% Inhibition of AGE-BSA Formation” value in [4] (Conc. 100 uM) was “+ (+ indicate 0-10%)”.

Consider `O=C(NCCO)C1=CN(CC(=O)c2cccs2)CCC1` [compound 158, N-(2-hydroxyethyl)-1-[2-oxo-2-(thiophen-2-yl)ethyl]-1,4,5,6-tetrahydropyridine-3-carboxamide], for which the “% Inhibition of AGE-LDL-formation” value in data set [3] (Conc. 100 uM) is “+ (+ indicate 0-10%)”. Also, the “% Inhibition of AGE-BSA Formation” value in [4] (Conc. 250 uM) is given as “+ (+ indicate 0-10%)”.
